The record followed here is ChEMBL document CHEMBL3886193, “Bicyclic sulfonamide compounds as sodium channel inhibitors” (2015).

What is called IC50 is the midpoint of a concentration-inhibition curve. A lower IC50 goes with inhibition by little substance.

The target in this test is Sodium channel protein type 9 subunit alpha (Homo sapiens, UniProt Q15858). The test is described as follows: Compound effects were measured on a partially inactivated state of the sodium channel. Cells were clamped to a holding potential yielding 20 to 50% inactivation. To elicit sodium current, channels were activated by pulsing to -10 mV for 20 msec. This voltage protocol was repeated at a rate of 0.1 Hz throughout the experiment. In kind it is cell-based, Sf9.

“And” between values parts separate entries of the source, which are not always exact repeats. Equal entries are not always repeated.

Sodium channel protein type 9 subunit alpha, sequence (Q15858 whole entry): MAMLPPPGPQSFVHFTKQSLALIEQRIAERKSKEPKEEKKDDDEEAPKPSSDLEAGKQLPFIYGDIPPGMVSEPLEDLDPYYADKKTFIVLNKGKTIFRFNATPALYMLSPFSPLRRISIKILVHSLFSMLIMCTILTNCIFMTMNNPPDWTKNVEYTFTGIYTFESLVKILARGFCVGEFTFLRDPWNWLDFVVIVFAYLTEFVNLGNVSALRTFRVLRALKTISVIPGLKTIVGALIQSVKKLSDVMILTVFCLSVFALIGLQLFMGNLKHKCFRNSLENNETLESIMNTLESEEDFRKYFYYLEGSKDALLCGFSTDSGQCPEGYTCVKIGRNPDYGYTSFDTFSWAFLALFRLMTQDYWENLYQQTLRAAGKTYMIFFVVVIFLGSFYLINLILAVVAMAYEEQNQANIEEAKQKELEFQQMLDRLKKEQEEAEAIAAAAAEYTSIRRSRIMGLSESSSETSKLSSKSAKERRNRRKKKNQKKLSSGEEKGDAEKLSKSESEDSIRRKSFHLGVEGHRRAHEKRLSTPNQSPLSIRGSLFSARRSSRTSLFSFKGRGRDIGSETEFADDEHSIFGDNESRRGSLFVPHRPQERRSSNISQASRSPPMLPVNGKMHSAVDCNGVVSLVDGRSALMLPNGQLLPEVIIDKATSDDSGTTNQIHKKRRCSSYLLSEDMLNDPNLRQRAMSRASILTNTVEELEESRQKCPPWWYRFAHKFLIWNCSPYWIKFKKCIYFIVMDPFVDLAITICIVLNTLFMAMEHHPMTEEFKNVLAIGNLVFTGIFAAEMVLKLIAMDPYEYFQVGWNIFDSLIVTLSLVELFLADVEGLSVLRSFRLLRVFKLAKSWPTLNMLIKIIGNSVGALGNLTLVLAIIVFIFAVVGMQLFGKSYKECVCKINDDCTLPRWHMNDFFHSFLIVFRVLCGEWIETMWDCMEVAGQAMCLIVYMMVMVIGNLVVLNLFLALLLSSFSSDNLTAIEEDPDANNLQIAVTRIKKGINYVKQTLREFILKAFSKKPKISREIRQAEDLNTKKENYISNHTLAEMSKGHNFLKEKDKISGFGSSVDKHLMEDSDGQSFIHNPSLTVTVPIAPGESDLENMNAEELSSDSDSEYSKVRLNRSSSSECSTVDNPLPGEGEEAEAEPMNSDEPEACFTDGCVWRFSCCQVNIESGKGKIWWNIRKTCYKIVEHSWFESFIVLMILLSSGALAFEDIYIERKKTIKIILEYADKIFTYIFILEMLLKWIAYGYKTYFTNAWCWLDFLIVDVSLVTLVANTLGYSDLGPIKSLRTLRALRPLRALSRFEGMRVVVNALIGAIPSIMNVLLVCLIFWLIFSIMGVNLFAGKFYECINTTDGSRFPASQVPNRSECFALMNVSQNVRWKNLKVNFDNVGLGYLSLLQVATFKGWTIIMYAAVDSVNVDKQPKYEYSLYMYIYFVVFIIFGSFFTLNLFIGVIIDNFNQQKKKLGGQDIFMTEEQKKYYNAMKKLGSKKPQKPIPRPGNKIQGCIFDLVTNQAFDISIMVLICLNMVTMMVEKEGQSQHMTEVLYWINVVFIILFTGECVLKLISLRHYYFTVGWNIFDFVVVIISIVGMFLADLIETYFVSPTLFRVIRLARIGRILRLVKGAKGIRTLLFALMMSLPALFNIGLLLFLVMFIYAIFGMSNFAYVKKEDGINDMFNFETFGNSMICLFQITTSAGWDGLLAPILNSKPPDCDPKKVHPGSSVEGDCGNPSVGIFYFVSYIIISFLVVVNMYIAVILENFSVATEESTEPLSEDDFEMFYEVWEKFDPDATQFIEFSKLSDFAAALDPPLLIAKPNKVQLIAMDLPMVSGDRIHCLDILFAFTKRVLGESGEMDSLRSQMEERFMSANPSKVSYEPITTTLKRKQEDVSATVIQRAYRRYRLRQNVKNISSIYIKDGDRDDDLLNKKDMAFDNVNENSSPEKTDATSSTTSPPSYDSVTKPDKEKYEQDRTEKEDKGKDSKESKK

In the case of `COc1ccc(CC(=O)OC(C)(C)C)cc1-n1c(=O)ccc2cc(S(=O)(=O)Nc3ccon3)ccc21`, inhibition was half-maximal at 1980 nM (IC50).
For `COc1cc(-c2cc(Cl)ccn2)c(F)cc1-n1c(=O)ccc2cc(S(=O)(=O)Nc3ccon3)ccc21` the value was 93 nM; for `COc1cc(OC)cc(-c2cc(OC)c(-n3c(=O)ccc4cc(S(=O)(=O)Nc5ccon5)ccc43)cc2F)c1`, 12 nM; for `COc1cc(OC)cc(-c2cc(OC)c(-n3c(=O)ccc4cc(S(=O)(=O)Nc5cccnn5)ccc43)cc2F)c1`, 83 nM.
The compound `COc1cc(-c2ccc(Cl)cc2)ccc1-n1c(=O)ccc2cc(S(=O)(=O)Nc3ncccn3)ccc21` displayed an IC50 of 95 nM.
For the compound `COc1cc(-c2ccc(-n3c(=O)ccc4cc(S(=O)(=O)Nc5cccnn5)ccc43)c(OC)c2)ccc1C`, the midpoint of inhibition, the IC50, lay at 143 nM. Compared with the last compound, the IC50 is about 1.5-fold higher.
`Cc1cc(-c2cc(C)c(-n3c(=O)ccc4cc(S(=O)(=O)Nc5ccncn5)ccc43)cc2F)ccc1Cl`: the IC50 was 684 nM. Compared with the last compound, the IC50 is about 4.8-fold higher.
`COc1cc(CC2CCCC2)c(F)cc1-n1c(=O)ccc2cc(S(=O)(=O)Nc3ccon3)ccc21`: the concentration for half-maximal inhibition (IC50) amounted to 11 nM.
Take `COc1cc(-c2cc(C)cc(F)c2)c(F)cc1-n1c(=O)ccc2cc(S(=O)(=O)Nc3ccon3)ccc21`: the midpoint of inhibition, the IC50, lay at 8 nM.
As for `COc1cc(-c2cccc(C(F)(F)F)c2)c(F)cc1-n1c(=O)ccc2cc(S(=O)(=O)Nc3cc(C)ncn3)ccc21`, the half-maximal inhibitory concentration (IC50) is 10 nM. The IC50 values of the last two compounds are within 1.5-fold of each other.
For `COc1cc(-c2cc(OC)c(-n3c(=O)ccc4cc(S(=O)(=O)Nc5cccnn5)ccc43)cc2F)ccc1Cl` the value was 10 nM; for `COc1ccc(-c2cc(OC)c(-n3c(=O)ccc4cc(S(=O)(=O)Nc5ccon5)ccc43)cc2F)cc1Cl`, 25 nM; for `COc1cc(Oc2ccc(F)cc2)ccc1-n1c(=O)ccc2cc(S(=O)(=O)Nc3ccon3)ccc21`, 49 nM.
In turn, `COc1cc(-c2ccc(F)c(F)c2)ccc1-n1c(=O)ccc2cc(S(=O)(=O)Nc3ncc(F)cn3)ccc21` came in with an IC50 of 76 nM.
Compound `COc1cc(-c2cccc(OC(F)F)c2)c(F)cc1-n1c(=O)ccc2cc(S(=O)(=O)Nc3ccnc(C)n3)ccc21` registered a half-maximal inhibitory concentration (IC50) of 28 nM.
As to `COc1cc(-c2ccc(Cl)c(C)c2)c(F)cc1-n1c(=O)cnc2cc(S(=O)(=O)Nc3ncccn3)ccc21`, the half-maximal inhibitory concentration (IC50) was 23 nM and 6 nM.
`COCc1cc(NS(=O)(=O)c2ccc3c(ccc(=O)n3-c3cc(F)c(Br)cc3OC)c2)ncn1` displayed an IC50 of 4530 nM.
Regarding `COc1cc(-c2cccc(C(F)(F)F)c2)c(F)cc1-n1c(=O)ccc2cc(S(=O)(=O)Nc3ncccn3)ccc21`, the IC50 is 10 nM.
Consider `COc1cc(Br)c(F)cc1-n1c(=O)ccc2cc(S(=O)(=O)Nc3ccnc(C)n3)ccc21`, for which the IC50 is 3010 nM.
`COc1cc(C(F)(F)F)c(Cl)cc1-n1c(=O)ccc2cc(S(=O)(=O)Nc3ccncn3)ccc21` returned an IC50 of 123 nM. This IC50 is about 24-fold lower than that of the compound before.
`COc1cc(-c2cc(Cl)cnc2OC)c(F)cc1-n1c(=O)ccc2cc(S(=O)(=O)Nc3ccon3)ccc21` returned an IC50 of 24 nM.
Take `COc1nc(OCC2CCCCC2)c(Cl)cc1-n1c(=O)ccc2cc(S(=O)(=O)Nc3ccon3)ccc21`: the IC50 was found to be 52 nM.
For `COc1cc(-c2ccc(Cl)c(C)c2)c(F)cc1-n1c(=O)ccc2cc(S(=O)(=O)Nc3ccncn3)ccc21` the value was 5 nM; for `COc1cc(C2CCCC2)c(F)cc1-n1c(=O)ccc2cc(S(=O)(=O)Nc3ccon3)ccc21`, 88 nM; for `COc1cc(OC)cc(-c2cc(OC)c(-n3c(=O)ccc4cc(S(=O)(=O)Nc5ncc(F)cn5)ccc43)cc2F)c1`, 33 nM.
For the compound `COc1cc(Cl)cc(-c2cc(OC)c(-n3c(=O)ccc4cc(S(=O)(=O)Nc5ncccn5)ccc43)cc2C)c1`, half-maximal inhibition (IC50) was put at 5 nM.
Regarding `CCc1nccc(NS(=O)(=O)c2ccc3c(ccc(=O)n3-c3cc(F)c(Br)cc3OC)c2)n1`, the IC50 is 124 nM.
`COc1cc(-c2cc(F)cc(C(F)(F)F)c2)ccc1-n1c(=O)ccc2cc(S(=O)(=O)Nc3ccon3)ccc21` returned an IC50 of 9 nM.
`COc1cc(C#CC2CCCC2)c(F)cc1-n1c(=O)ccc2cc(S(=O)(=O)Nc3ccon3)ccc21` registered an IC50 of 22 nM.
Turning to `COc1cc(-c2ccc(Cl)c(C)c2)c(F)cc1-n1c(=O)ccc2cc(S(=O)(=O)Nc3ccon3)c(F)cc21`, the IC50 came out at 13 nM.
In turn, `COc1cc(Cl)ccc1-c1cc(OC)c(-n2c(=O)ccc3cc(S(=O)(=O)Nc4ccon4)ccc32)cc1F` came in with an IC50 of 16 nM.
The compound `COc1cc(-c2ccc(Cl)cc2)ccc1-n1c(=O)ccc2cc(S(=O)(=O)Nc3ccon3)ccc21` showed an IC50 of 22 nM.
`COc1cc(-c2ccc(F)cc2)c(F)cc1-n1c(=O)ccc2cc(S(=O)(=O)Nc3ncccn3)ccc21` came in with an IC50 of 193 nM.
Compound `COc1cc(-c2cc(F)cc(C(F)(F)F)c2)ccc1-n1c(=O)ccc2cc(S(=O)(=O)Nc3ncco3)ccc21` had an IC50 of 37 nM.
Compound `COc1cc(Cl)cc(-c2ccc(-n3c(=O)cnc4cc(S(=O)(=O)Nc5ccon5)ccc43)c(OC)c2)c1` returned an IC50 of 52 nM.
`COc1cc(CC2CCCCC2)c(F)cc1-n1c(=O)ccc2cc(S(=O)(=O)Nc3ncccn3)ccc21` showed an IC50 of 39 nM.
Next, `COc1cc(-c2ccc(-n3c(=O)ccc4cc(S(=O)(=O)Nc5ncccn5)ccc43)c(OC)c2)ccc1C`: 243 nM; `COc1cc(-c2ccc(-n3c(=O)ccc4cc(S(=O)(=O)Nc5ncccn5)ccc43)c(OC)c2)ccc1Cl`: 21 nM.
`COc1cc(-c2ccc(F)c(F)c2)c(F)cc1-n1c(=O)ccc2cc(S(=O)(=O)Nc3cccnn3)ccc21` registered an IC50 of 16 nM.
Take `COc1cc(C#CC2CCCC2)c(F)cc1-n1c(=O)ccc2cc(S(=O)(=O)Nc3cccnn3)ccc21`: the IC50 came out at 8 nM.
Next, `COc1cc(-c2ccc(Cl)c(C)c2)ccc1-n1c(=O)ccc2cc(S(=O)(=O)Nc3ncco3)ccc21`: 9 nM.
`COc1cc(NS(=O)(=O)c2ccc3c(ccc(=O)n3-c3cc(F)c(Br)cc3OC)c2)ncn1` returned a concentration for half-maximal inhibition (IC50) of 312 nM.
For `COc1cc(-c2cc(Cl)ccc2C)ccc1-n1c(=O)ccc2cc(S(=O)(=O)Nc3ncccn3)ccc21`, the midpoint of inhibition, the IC50, lay at 12 nM.
The compound `COc1cc(-c2cc(F)cc(OC(F)F)c2)c(F)cc1-n1c(=O)ccc2cc(S(=O)(=O)Nc3ccon3)ccc21` displayed an IC50 of 11 nM.
Regarding `COc1cc(-c2ccc(F)cc2)c(F)cc1-n1c(=O)ccc2cc(S(=O)(=O)Nc3ccon3)ccc21`, half-maximal inhibition (IC50) was put at 9 nM. This IC50 and that of the compound before are within 1.5-fold of each other.
Turning to `CCc1nccc(NS(=O)(=O)c2ccc3c(ccc(=O)n3-c3cc(F)c(-c4cc(F)cc(Cl)c4)cc3OC)c2)n1`, half-maximal inhibition (IC50) required 7920 nM.
For `COc1cc(C#CC2(C)COC2)c(F)cc1-n1c(=O)ccc2cc(S(=O)(=O)Nc3ccon3)ccc21` the value was 1550 nM.
As to `COc1cc(-c2cccc(C(F)F)c2)c(F)cc1-n1c(=O)ccc2cc(S(=O)(=O)Nc3ccon3)ccc21`, half-maximal inhibition (IC50) was put at 35 nM.
For `COc1cc(-c2ccccn2)c(F)cc1-n1c(=O)ccc2cc(S(=O)(=O)Nc3ccon3)ccc21` the value was 888 nM.
Consider `COc1cc(C2CCOCC2)c(F)cc1-n1c(=O)ccc2cc(S(=O)(=O)Nc3ccon3)ccc21`, for which half-maximal inhibition (IC50) required 3070 nM. This IC50 is about 3.5-fold higher than that of the compound before.
Next, `COc1cc(OC)cc(-c2cc(OC)c(-n3c(=O)ccc4cc(S(=O)(=O)Nc5ncccn5)ccc43)cc2F)c1`: 64 nM; `COc1cc(-c2ccc(-n3c(=O)ccc4cc(S(=O)(=O)Nc5ncc(F)cn5)ccc43)c(OC)c2)ccc1C`: 166 nM.
For `COc1ccc(-c2ccc(F)nc2)cc1-n1c(=O)ccc2cc(S(=O)(=O)Nc3ccon3)ccc21` the value was 902 nM.
For `COc1cc(-c2ccc(F)c(OC(F)F)c2)c(F)cc1-n1c(=O)ccc2cc(S(=O)(=O)Nc3ccon3)ccc21` the value was 22 nM; for `COc1cc(-c2cccc(OC(F)F)c2)c(F)cc1-n1c(=O)ccc2cc(S(=O)(=O)Nc3ncccn3)ccc21`, 23 nM; for `COc1cc(Br)c(F)cc1-n1c(=O)ccc2cc(S(=O)(=O)Nc3nccc(C)n3)ccc21`, 1560 nM.
Take `COc1cc(NS(=O)(=O)c2ccc3c(ccc(=O)n3-c3cc(F)c(-c4cc(F)cc(Cl)c4)cc3OC)c2)ncn1`: it took 49 nM to reach half-maximal inhibition (IC50). This IC50 is about 32-fold lower than that of the compound before.
Next, `COc1cc(-c2cc(F)cc(Cl)c2)c(F)cc1-n1c(=O)ccc2cc(S(=O)(=O)Nc3ncco3)ccc21`: 14 nM; `COc1cc(-c2ccc(C#N)c(C)c2)c(F)cc1-n1c(=O)ccc2cc(S(=O)(=O)Nc3ccon3)ccc21`: 91 nM; `COc1cc(-c2cc(F)cc(C(F)(F)F)c2)ccc1-n1c(=O)ccc2cc(S(=O)(=O)Nc3ncc(F)cn3)ccc21`: 35 nM.
Next, `COc1cc(CC2CCCCC2)c(F)cc1-n1c(=O)ccc2cc(S(=O)(=O)Nc3ncon3)ccc21`: 30 nM; `COc1cc(C2CC2)c(Cl)cc1-n1c(=O)ccc2cc(S(=O)(=O)Nc3ccon3)ccc21`: 481 nM.
`COc1cc(Cl)cc(-c2ccc(-n3c(=O)ccc4cc(S(=O)(=O)Nc5ccon5)ccc43)c(OC)c2)c1`: it took 10 nM to reach half-maximal inhibition (IC50).
For the compound `COc1cc(-c2ccc(-n3c(=O)ccc4cc(S(=O)(=O)Nc5ccnc(C)n5)ccc43)c(OC)c2)ccc1C`, half-maximal inhibition (IC50) was put at 296 nM. This IC50 lies about 30-fold higher than the previous one.
Next, `COc1cc(Br)c(F)cc1-n1c(=O)ccc2cc(S(=O)(=O)Nc3cc(C)ncn3)ccc21`: 1040 nM; `COc1cc(-c2ccc(Cl)c(C)c2)ccc1-n1c(=O)ccc2cc(S(=O)(=O)Nc3ncon3)ccc21`: 30 nM; `COc1cc(C#CC(C)(C)OC)c(F)cc1-n1c(=O)ccc2cc(S(=O)(=O)Nc3ccon3)ccc21`: 373 nM.
Next, `COc1cc(-c2ccc(-n3c(=O)ccc4cc(S(=O)(=O)Nc5cc(C)ncn5)ccc43)c(OC)c2)ccc1C`: 198 nM.
With `COc1cc(-c2cc(Cl)cnc2OC)c(F)cc1-n1c(=O)ccc2cc(S(=O)(=O)Nc3ncccn3)ccc21`, half-maximal inhibition (IC50) required 72 nM.
